US20260248784A1, “BTK Degrader and Use Thereof” (JIANGSU VCARE PHARMATECH CO., LTD., priority 2023, published 2026)
Read-outs that look alike come from different tables or passages of the source.

Key:
[1] = tested on: mino cells; assay: Activity test in Mino cells (CCK8 proliferation inhibition); format: cell-based; conditions: Homo sapiens, 72 h, 3 days, read-out: Cell inhibition IC50
Method: Cell culture: mino cells (culture conditions: RPMI1640 medium+15% FBS, 37° C., 5% CO2). Cell plating: The cells subcultured into the logarithmic growth phase were collected and transferred into a centrifuge tube, and centrifuged at 800 rpm for 5 min. The cells were resuspended in complete medium and counted. The cells were diluted and adjusted to a final concentration of 200000 cells/mL. The cells were then seeded into a 96-well plate with 100 μL per well. Cell administration: Each group of drug solutions was added into the 96-well plate, 100 μL per well, n=3 for each drug concentration. Meanwhile, negative wells (n=6) and blank wells (n=3) were set up. The 96-well plate was incubated in the incubator for further 3 days. CCK8 reagent was added to the 96-well plate, 20 μL per well, and then the plate was placed in the incubator for further 4 h. The absorbance of the solution was measured at a wavelength of 450 nm using an enzyme reader. The proliferation inhibition rate was calculated and the half inhibitory concentration IC50 value was calculated.

[2] = Brain tissue distribution test in mice; format: in vivo; conditions: IV 10 mg/kg; for AUC(0-inf) / AUC(0-t) / MRT / half-life: mouse; for half-life: read-out: T½ (converted)
Method: Mice were weighed and dosed, and about 50 μL of whole blood was collected from the orbital venous plexus at 5 min, 0.25 h, 0.5 h, 1 h, 2 h, 4 h, 6 h, 8 h, and 24 h after administration, using EDTA-K2 as anticoagulant. At the same time, the animals were euthanized, and the brains were removed, and the brain tissue samples were stored in a −80° C. refrigerator until analysis. The blood samples were centrifuged at 4000 rpm for 10 min at 4° C., and 20 μL of the supernatant plasma sample was taken into an EP tube and immediately stored in a −80° C. refrigerator until analysis. 10 μL of the plasma sample was transferred to a 96-well plate and 250 μL of acetonitrile (containing internal standard) was added to precipitate proteins. The samples were centrifuged at 4000 rpm/min for 20 min in a 4° C. centrifuge. The supernatant was transferred and injected into LC MS/MS to detect the drug concentration. The brain tissue samples were weighed and homogenized with 4 times ice-cold PBS, and 50 μL of the brain tissue homogenate was transferred to a 96-well plate. 500 μL of acetonitrile (containing internal standard) was added to precipitate the protein. The samples were centrifuged at 4000 rpm/min for 20 min in a 4° C. centrifuge. 380 μL of the supernatant was transferred to a new 96-well plate and 380 μL of 0.1% formic acid in water was added and mixed thoroughly. 10 μL of the sample was taken and injected into LC MS/MS to detect the drug concentration. The data were processed by Thermo LC Quan software, and the standard curve was established using the internal standard method, with the theoretical standard curve concentration as the abscissa and the peak area ratio as the ordinate (test compound peak area/internal standard peak area). Sample concentrations were calculated using the standard curve. The pharmacokinetic parameters were calculated using WinNonlin 8.2 software.

[3] = tested on: Mino cell xenograft; assay: Activity test in Mino cell xenograft model; format: in vivo, NOD SCID mice; conditions: for Tumor volume: end of experiment, Mean ± SD

Row | Structure (SMILES) | IC50 [1] [nM] | also measured
1 | COc1ccc(F)cc1C(=O)NCc1ccc(-c2nc(-c3ccc(N4CCN(CC5CCN(c6ccc(C7CCC(=O)NC7=O)cc6)CC5)CC4)cc3)n3ccnc(N)c23)cc1 (stereo not drawn) [Compound I-18] | < 25 | B/P Ratio AUC (brain)/AUC (plasma) [2]: 6.86% ± 0.01; AUC(0-inf) ([2]; brain): 2710 ± 149 ng·h/mL; AUC(0-t) ([2]; brain): 2270 ± 126 ng·h/mL; MRT ([2]; brain): 7.17 ± 0.59 h; half-life ([2]; brain): 563 ± 182 min; AUC(0-inf) ([2]; plasma): 39800 ± 4460 ng·h/mL; AUC(0-t) ([2]; plasma): 39100 ± 5080 ng·h/mL; MRT ([2]; plasma): 4.88 ± 0.14 h; half-life ([2]; plasma): 266 ± 82.8 min
2 | COc1ccc(F)cc1C(=O)NCc1ccc(-c2nc(-c3ccc(N4CCN(CC5CCN(c6ccc(N7CCC(=O)NC7=O)c(C)c6)CC5)CC4)cc3)n3ccnc(N)c23)cc1 [Compound I-40] | < 25 | TGITV (Relative tumor volume inhibition rate) ([3]; 30 mg/kg): 76.65%; Tumor volume ([3]; 30 mg/kg): 1146.34 ± 435.82 mm^3
3 | COc1ccc(F)cc1C(=O)NCc1ccc(-c2nn(-c3ccc(N4CCN(CC5CCN(c6ccc7c(c6)CN(C6CCC(=O)NC6=O)C7=O)CC5)CC4)nc3)c3ncnc(N)c23)cc1F (stereo not drawn) [II-5, N-(4-(4-amino-1-(6-(4-((1-(2-(2,6-dioxopiperidin-3-yl)-1-oxoisoindolin-5-yl)piperidin-4-yl)methyl)piperazin-1-yl)pyridin-3-yl)-1H-pyrazolo[3,4-d]pyrimidin-3-yl)-2-fluorobenzyl)-5-fluoro-2-methoxybenzamide] | 9 | –
4 | COc1ccc(F)cc1C(=O)NCc1ccc(-c2nn(-c3ccc(N4CCN(CC5CCN(c6ccc7c(c6)C(=O)N(C6CCC(=O)NC6=O)C7=O)CC5)CC4)nc3)c3ncnc(N)c23)cc1C (stereo not drawn) [II-6, N-(4-(4-amino-1-(6-(4-((1-(2-(2,6-dioxopiperidin-3-yl)-1,3-dioxoisoindol-5-yl)piperidin-4-yl)methyl)piperazin-1-yl)pyridin-3-yl)-1H-pyrazolo[3,4-d]pyrimidin-3-yl)-2-methylbenzyl)-5-fluoro-2-methoxybenzamide] | 21 | –
5 | COc1ccc(F)cc1C(=O)NCc1ccc(-c2nn(-c3ccc(C4CCN(CC5CCN(c6ccc7c(c6)C(=O)N(C6CCC(=O)NC6=O)C7=O)CC5)CC4)nc3)c3ncnc(N)c23)cc1 (stereo not drawn) [II-7, N-(4-(4-amino-1-(6-(1-((1-(2-(2,6-dioxopiperidin-3-yl)-1,3-dioxoisoindolin-5-yl)piperidin-4-yl)methyl)piperidin-4-yl)pyridin-3-yl)-1H-pyrazolo[3,4-d]pyrimidin-3-yl)benzyl)-5-fluoro-2-methoxybenzamide] | 18 | –
6 | COc1ccc(F)cc1C(=O)NCc1ccc(-c2nn(-c3ccc(N4CCN(CC5CCN(c6ccc7c(c6)C(=O)N(C6CCC(=O)NC6=O)C7)CC5)CC4)cc3)c(N)c2C(N)=O)cc1 (stereo not drawn) [II-10] | < 25 | –
7 | COc1ccc(F)cc1C(=O)NCc1ccc(-c2nn(-c3ccc(N4CCN(CC5CCN(c6ccc7c(c6)CN(C6CCC(=O)NC6=O)C7=O)CC5)CC4)nc3)c3ccnc(N)c23)cc1 (stereo not drawn) [II-12, N-(4-(4-amino-1-(6-(4-((1-(2-(2,6-dioxopiperidin-3-yl)-1-oxoisoindol-5-yl)piperidin-4-yl)methyl)piperazin-1-yl)pyridin-3-yl)-1H-pyrazolo[4,3-c]pyridin-3-yl)benzyl)-5-fluoro-2-methoxybenzamide] | < 500 | –
8 | COc1ccc(F)cc1C(=O)NCc1ccc(-n2c(=O)n(-c3ccc(N4CCN(CC5CCN(c6ccc7c(c6)CN(C6CCC(=O)NC6=O)C7=O)CC5)CC4)cc3)c3ccnc(N)c32)cc1 (stereo not drawn) [II-24, N-(4-(4-amino-1-(4-(-4-((1-(2-(2,6-dioxopiperidin-3-yl)-1-oxoisoindol-5-yl)piperidin-4-yl)methyl)piperazin-1-yl)phenyl)-2-oxo-1,2-dihydro-3H-imidazo[4,5-c]pyridin-3-yl)benzyl)-5-fluoro-2-methoxybenzamide] | < 50 | –
9 | COc1ccc(F)cc1C(=O)NCc1ccc(-c2nn(-c3ccc(N4CCN(CC5CCN(c6ccc7c(c6)C(=O)N(C6CCC(=O)NC6=O)C7)CC5)CC4)nc3)c(N)c2C(N)=O)cc1 (stereo not drawn) [II-34, 5-amino-1-(6-(4-((1-(2-(2,6-dioxopiperidin-3-yl)-3-oxoisoindolin-5-yl)piperidin-4-yl)methyl)piperazin-1-yl)pyridin-3-yl)-4-(((5-fluoro-2-methoxybenzamido)methyl)phenyl)-1H-pyrazole-4-carboxamide] | < 25 | –
10 | Nc1ncnc2c1c(-c1ccc(Oc3ccccc3)cc1)nn2-c1ccc(N2CCC(CN3CCN(c4ccc5c(c4)C(=O)N(C4CCC(=O)NC4=O)C5=O)CC3)CC2)nc1 (stereo not drawn) [II-37, 5-(4-((1-(5-(4-amino-3-(4-phenoxyphenyl)-1H-pyrazolo[3,4-d]pyrimidin-1-yl)pyridin-2-yl)piperidin-4-yl)methyl)piperazin-1-yl)-2-(2,6-dioxopiperidin-3-yl) isoindoline-1,3-dione] | < 25 | –
11 | COc1ccc(F)cc1C(=O)NCc1ccc(-c2nn(-c3ccc(N4CCN(CC5CCN(c6ccc7c(c6)CN(C6CCC(=O)NC6=O)C7=O)CC5)C[C@@H]4C)nc3)c3ncnc(N)c23)cc1 (stereo partly drawn) [II-38, N-(4-(4-amino-1-(6-((2S)-4-((1-(2-(2,6-dioxopiperidin-3-yl)-1-oxoisoindol-5-yl)piperidin-4-yl)methyl)-2-methylpiperazin-1-yl)pyridin-3-yl)-1H-pyrazolo[3,4-d]pyrimidin-3-yl)benzyl)-5-fluoro-2-methoxybenzamide] | < 25 | –
12 | COc1ccc(F)cc1C(=O)NCc1ccc(-c2nn(-c3ccc(C4CCN(CC5CCN(c6ccc7c(c6)C(=O)N(C6CCC(=O)NC6=O)C7)CC5)CC4)cc3)c(N)c2C(N)=O)cc1 (stereo not drawn) [II-39] | < 25 | –
13 | Nc1ncnc2c1c(-c1ccc(Oc3ccccc3)cc1)nn2-c1ccc(N2CCN(C[C@@H]3CCCC[C@H]3CN3CCN(c4ccc5c(c4)CN(C4CCC(=O)NC4=O)C5=O)CC3)CC2)nc1 (stereo partly drawn) [III-19, 3-(5-(4-(((1R,2R)-2-((4-(5-(4-amino-3-(4-phenoxyphenyl)-1H-pyrazolo[3,4-d]pyrimidin-1-yl)pyridin-2-yl)piperazin-1-yl)methyl)cyclohexyl)methyl)piperazin-1-yl)-1-oxoisoindolin-2-yl)piperidine-2,6-dione] | < 100 | –
14 | Cc1cc(N2CCN(C[C@@H]3CCCC[C@H]3CN3CCN(c4ccc(-n5nc(-c6ccc(Oc7ccccc7)cc6)c6c(N)ncnc65)cn4)CC3)CC2)ccc1N1CCC(=O)NC1=O [III-20, 1-(4-(4-(((1R,2R)-2-((4-(5-(4-amino-3-(4-phenoxyphenyl)-1H-pyrazolo[3,4-d]pyrimidin-1-yl)pyridin-2-yl)piperazin-1-yl)methyl)cyclohexyl)methyl)piperazin-1-yl)-2-methylphenyl)dihydropyrimidine-2,4(1H,3H)-dione] | < 500 | –
15 | C=CC(=O)N1CCC[C@@H](n2nc(-c3ccc(Oc4ccccc4)cc3)c3c(N)ncnc32)C1 [Ibrutinib, ibrutinib, reference compound] | – | TGITV (Relative tumor volume inhibition rate) ([3]; 50 mg/kg): 40.73%; Tumor volume ([3]; 50 mg/kg): 3018.11 ± 1293.65 mm^3
